In patent publication US20260125382A1, “COMPOUNDS FOR INHIBITING OR DEGRADING CDK2 AND/OR CDK9 AND MEDICINAL USE THEREOF” (KOREA RESEARCH INSTITUTE OF CHEMICAL TECHNOLOGY, priority 2022, published 2026):

Columns and labels:
[1] = biological target: T1, CDK2/cyclin A (Homo sapiens, UniProt P24941); assay: CDK protein inhibition, KINOMEscan (Eurofins), CDK2/cyclin A; format: binding; settings: 1 μM
T1 construct: purchased Eurofins Scientific

[2] = biological target: T2, CDK2 (Homo sapiens, UniProt P24941); assay: CDK protein degradation activity (Western blotting), CDK2; format: cell-based; settings: MDA-MB-231 cells, 16 hours, Western blot
T2 construct: endogenous in cells; host or cells: MDA-MB-231
How it was run: (§1)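 MDA-MB-231 cells were treated with compound at final concentrations of 100 nM, 1 μM and 10 μM, or DMSO vehicle, for 16 h. Lysates were resolved by SDS-PAGE and immunoblotted for CDK2, CDK9 and tubulin, with band intensities quantified densitometrically.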

[3] = biological target: T3, CDK9 (Homo sapiens, UniProt P50750); assay: CDK protein degradation activity (Western blotting), CDK9; format: cell-based; settings: MDA-MB-231 cells, 16 hours, Western blot
T3 construct: endogenous in cells; host or cells: MDA-MB-231
T3 sequence (P50750 whole entry): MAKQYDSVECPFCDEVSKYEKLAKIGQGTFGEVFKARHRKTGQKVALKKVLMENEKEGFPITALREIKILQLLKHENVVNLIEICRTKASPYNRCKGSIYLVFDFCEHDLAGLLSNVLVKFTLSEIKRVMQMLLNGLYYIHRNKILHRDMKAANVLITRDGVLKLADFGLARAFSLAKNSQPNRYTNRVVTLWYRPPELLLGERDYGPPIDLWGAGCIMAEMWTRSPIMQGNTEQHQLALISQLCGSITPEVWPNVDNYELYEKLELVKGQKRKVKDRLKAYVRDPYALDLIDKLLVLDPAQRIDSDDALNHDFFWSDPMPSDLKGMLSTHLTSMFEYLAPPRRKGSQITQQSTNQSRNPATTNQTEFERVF
How it was run: as §1

Molecule | CDK2/cyclin A inhibition (%) (at concentration of 1 μM) [1] | Enzyme degradation CDK2 (% remaining) @ 0.1 μM [2] | Enzyme degradation CDK2 (% remaining) @ 1 μM [2] | Enzyme degradation CDK2 (% remaining) @ 10 μM [2] | Enzyme degradation CDK9 (% remaining) @ 0.1 μM [3] | Enzyme degradation CDK9 (% remaining) @ 1 μM [3] | Enzyme degradation CDK9 (% remaining) @ 10 μM [3]
Cc1cccc(C(=O)NC2CC(n3cnc4c(NC5CCN(C(=O)CCCCCNC(=O)CNc6cccc7c6C(=O)N([C@@H]6CCC(=O)NC6=O)C7=O)CC5)ncnc43)C2)n1 (stereo partly drawn) [Compound 1, N-((1r,3r)-3-(6-((1-(6-(2-((2-(2,6-dioxopiperidin-3-yl)-1,3-dioxoisoindolin-4-yl)amino)acetamido)hexanoyl)piperidin-4-yl)amino)-9H-purin-9-yl)cyclobutyl)-6-methylpicolinamide] | 77% | – | – | – | – | – | –
Cc1cccc(C(=O)NC2CC(n3cnc4c(NCC5CCN(C(=O)CCCCCNC(=O)CNc6cccc7c6C(=O)N([C@@H]6CCC(=O)NC6=O)C7=O)CC5)ncnc43)C2)n1 (stereo partly drawn) [Compound 2, N-((1r,3r)-3-(6-(((1-(6-(2-((2-(2,6-dioxopiperidin-3-yl)-1,3-dioxoisoindolin-4-yl)amino)acetamido)hexanoyl)piperidin-4-yl)methyl)amino)-9H-purin-9-yl)cyclobutyl)-6-methylpicolinamide] | 84% | – | – | – | – | – | –
Cc1cccc(C(=O)NC2CC(n3cnc4c(NC5CCN(C(=O)CCCCCNC(=O)COc6ccc7c(c6)C(=O)N([C@@H]6CCC(=O)NC6=O)C7=O)CC5)ncnc43)C2)n1 (stereo partly drawn) [Compound 3, N-((1r,3r)-3-(6-((1-(6-(2-((2-(2,6-dioxopiperidin-3-yl)-1,3-dioxoisoindolin-5-yl)oxy)acetamido)hexanoyl)piperidin-4-yl)amino)-9H-purin-9-yl)cyclobutyl)-6-methylpicolinamide] | 84% | – | – | – | – | – | –
Cc1cccc(C(=O)NC2CC(n3cnc4c(NC5CCN(C(=O)CCCCCNC(=O)COc6cccc7c6C(=O)N([C@@H]6CCC(=O)NC6=O)C7=O)CC5)ncnc43)C2)n1 (stereo partly drawn) [Compound 4, N-((1r,3r)-3-(6-((1-(6-(2-((2-(2,6-dioxopiperidin-3-yl)-1,3-dioxoisoindolin-4-yl)oxy)acetamido)hexanoyl)piperidin-4-yl)amino)-9H-purin-9-yl)cyclobutyl)-6-methylpicolinamide] | 84% | – | – | – | – | – | –
Cc1cccc(C(=O)NC2CC(n3cnc4c(NC5CCN(C(=O)CCCCCNc6ccc7c(c6)C(=O)N([C@@H]6CCC(=O)NC6=O)C7=O)CC5)ncnc43)C2)n1 (stereo partly drawn) [Compound 5, N-((1r,3r)-3-(6-((1-(6-((2-(2,6-dioxopiperidin-3-yl)-1,3-dioxoisoindolin-5-yl)amino)hexanoyl)piperidin-4-yl)amino)-9H-purin-9-yl)cyclobutyl)-6-methylpicolinamide] | 91% | – | – | – | – | – | –
Cc1cccc(C(=O)NC2CC(n3cnc4c(NC5CCN(C(=O)CCCCCNc6cccc7c6C(=O)N([C@@H]6CCC(=O)NC6=O)C7=O)CC5)ncnc43)C2)n1 (stereo partly drawn) [Compound 6, N-((1r,3r)-3-(6-((1-(6-((2-(2,6-dioxopiperidin-3-yl)-1,3-dioxoisoindolin-4-yl)amino)hexanoyl)piperidin-4-yl)amino)-9H-purin-9-yl)cyclobutyl)-6-methylpicolinamide] | 88% | – | – | – | – | – | –
Cc1cccc(C(=O)NC2CC(n3cnc4c(NC5CCN(C(=O)COCCOCCNC(=O)COc6ccc7c(c6)C(=O)N([C@H]6CCC(=O)NC6=O)C7=O)CC5)ncnc43)C2)n1 (stereo partly drawn) [Compound 7, N-((1s,3s)-3-(6-((1-(2-(2-(2-(2-((2-(2,6-dioxopiperidin-3-yl)-1,3-dioxoisoindolin-5-yl)oxy)acetamido)ethoxy)ethoxy)acetyl)piperidin-4-yl)amino)-9H-purin-9-yl)cyclobutyl)-6-methylpicolinamide] | 94% | – | – | – | – | – | –
Cc1cccc(C(=O)NC2CC(n3cnc4c(NC5CCN(C(=O)COCCOCCNC(=O)COc6cccc7c6C(=O)N([C@H]6CCC(=O)NC6=O)C7=O)CC5)ncnc43)C2)n1 (stereo partly drawn) [Compound 8, N-((1s,3s)-3-(6-((1-(2-(2-(2-(2-((2-(2,6-dioxopiperidin-3-yl)-1,3-dioxoisoindolin-4-yl)oxy)acetamido)ethoxy)ethoxy)acetyl)piperidin-4-yl)amino)-9H-purin-9-yl)cyclobutyl)-6-methylpicolinamide] | 89% | – | – | – | – | – | –

More lines, now with the values ahead:

CDK2/cyclin A inhibition (%) (at concentration of 1 μM) [1] | Enzyme degradation CDK2 (% remaining) @ 0.1 μM [2] | Enzyme degradation CDK2 (% remaining) @ 1 μM [2] | Enzyme degradation CDK2 (% remaining) @ 10 μM [2] | Enzyme degradation CDK9 (% remaining) @ 0.1 μM [3] | Enzyme degradation CDK9 (% remaining) @ 1 μM [3] | Enzyme degradation CDK9 (% remaining) @ 10 μM [3] | Molecule
92% | – | – | – | – | – | – | Cc1cccc(C(=O)NC2CC(n3cnc4c(NC5CCN(C(=O)COCCOCCNC(=O)CNc6ccc7c(c6)C(=O)N([C@H]6CCC(=O)NC6=O)C7=O)CC5)ncnc43)C2)n1 (stereo partly drawn) [Compound 9, N-((1s,3s)-3-(6-((1-(2-(2-(2-(2-((2-(2,6-dioxopiperidin-3-yl)-1,3-dioxoisoindolin-5-yl)amino)acetamido)ethoxy)ethoxy)acetyl)piperidin-4-yl)amino)-9H-purin-9-yl)cyclobutyl)-6-methylpicolinamide]
– | 10% | 20% | 20% | 20/20/20% | 20/20/20% | 20/20/20% | Cc1cccc(C(=O)NC2CC(n3cnc4c(Nc5ccc(N6CCN(CC7CCN(c8ccc9nnn([C@H]%10CCC(=O)NC%10=O)c(=O)c9c8)CC7)CC6)cc5C)ncnc43)C2)n1 (stereo partly drawn) [Compound 478, N-((1s,3s)-3-(6-((4-(4-((1-(3-(2,6-dioxopiperidin-3-yl)-4-oxo-3,4-dihydrobenzo[d][1,2,3]triazin-6-yl)piperidin-4-yl)methyl)piperazin-1-yl)-2-methylphenyl)amino)-9H-purin-9-yl)cyclobutyl)-6-methylpicolinamide]
– | 50% | 60% | 60% | 30% | 20% | 20% | O=C1CC[C@H](N2C(=O)c3ccc(N4CCN(CC=CCN5CCC6(CC5)CC(N5CCN(c7ccc(Nc8ncnc9c8ncn9C8CC(NC(=O)Cc9ccccc9)C8)cc7)CC5)C6)CC4)cc3C2=O)C(=O)N1 (stereo partly drawn) [Compound 479, N-((1s,3s)-3-(6-((4-(4-(7-(4-(4-(2-(2,6-dioxopiperidin-3-yl)-1,3-dioxoisoindolin-5-yl)piperazin-1-yl)but-2-en-1-yl)-7-azaspiro[3.5]nonan-2-yl)piperazin-1-yl)phenyl)amino)-9H-purin-9-yl)cyclobutyl)-2-phenylacetamide]
– | 50/50/50% | 50/50/50% | 50/50/50% | 0/0/0% | 0/0/0% | 0/0/0% | N-((1s,3s)-3-(6-((4-(4-(2-(1-(1-(2-(2,6-dioxopiperidin-3-yl)-1,3-dioxoisoindolin-5-yl)piperidin-4-carbonyl)piperidin-4-yl)ethyl)piperazin-1-yl)phenyl)amino)-9H-purin-9-yl)cyclobutyl)-2-phenylacetamide [Compound 404]
– | 20% | 0% | 0% | 10/10/10% | 10/10/10% | 10/10/10% | N-((1s,3s)-3-(6-((4-(4-(3-(4-(1-(2-(2,6-dioxopiperidin-3-yl)-1,3-dioxoisoindolin-5-yl)azetidin-3-carbonyl)piperazin-1-yl)propyl)piperidin-1-yl)phenyl)amino)-9H-purin-9-yl)cyclobutyl)-2-phenylacetamide [Compound 366]
